Reference: PMC12210912, “Pharmacologic properties and inhibitory activity of 6-azasteroids against Mycobacterium leprae in vivo and in vitro” (Microbiology Spectrum, 2025)

Legend:
in vivo = conditions: female, Balb/c, mouse, po, 100 mg/kg
Protocol: Compound 5 was solubilized in 5% DMSO in 10% Solutol with 100 mM citrate buffer (pH 3) and was tested in Balb/c female mice, approximately 8 weeks old and 20 g, at 100 mg/kg with or without 10 mg/kg rifampicin. Mice (n = 3 per group) were treated PO with drug or vehicle once daily at 8 AM. Body weights were measured daily prior to dosing. […] On day 5, mice were sacrificed at 6 h post-dose, and whole blood and plasma were extracted for complete blood count and blood chemistry profiling on an Element HT5 system (Heska, USA) and plasma drug concentration analysis was performed by LC-MS (Sciex API 4500 Triple Quad, Shimadzu LC-30A). Calibration curves were prepared as described above for in vivo metabolism and pharmacokinetics.

Glucocorticoid Receptor = molecular target: T1, Glucocorticoid Receptor (Homo sapiens, UniProt P04150); assay: glucocorticoid receptor radioligand binding inhibition; conditions: [3H]dexamethasone binding, IM-9 cells cytosol
T1 construct: (i) GR (human) IM-9 cells (cytosol); host or cells: IM-9 cells (cytosol)
T1 sequence (P04150 1-777): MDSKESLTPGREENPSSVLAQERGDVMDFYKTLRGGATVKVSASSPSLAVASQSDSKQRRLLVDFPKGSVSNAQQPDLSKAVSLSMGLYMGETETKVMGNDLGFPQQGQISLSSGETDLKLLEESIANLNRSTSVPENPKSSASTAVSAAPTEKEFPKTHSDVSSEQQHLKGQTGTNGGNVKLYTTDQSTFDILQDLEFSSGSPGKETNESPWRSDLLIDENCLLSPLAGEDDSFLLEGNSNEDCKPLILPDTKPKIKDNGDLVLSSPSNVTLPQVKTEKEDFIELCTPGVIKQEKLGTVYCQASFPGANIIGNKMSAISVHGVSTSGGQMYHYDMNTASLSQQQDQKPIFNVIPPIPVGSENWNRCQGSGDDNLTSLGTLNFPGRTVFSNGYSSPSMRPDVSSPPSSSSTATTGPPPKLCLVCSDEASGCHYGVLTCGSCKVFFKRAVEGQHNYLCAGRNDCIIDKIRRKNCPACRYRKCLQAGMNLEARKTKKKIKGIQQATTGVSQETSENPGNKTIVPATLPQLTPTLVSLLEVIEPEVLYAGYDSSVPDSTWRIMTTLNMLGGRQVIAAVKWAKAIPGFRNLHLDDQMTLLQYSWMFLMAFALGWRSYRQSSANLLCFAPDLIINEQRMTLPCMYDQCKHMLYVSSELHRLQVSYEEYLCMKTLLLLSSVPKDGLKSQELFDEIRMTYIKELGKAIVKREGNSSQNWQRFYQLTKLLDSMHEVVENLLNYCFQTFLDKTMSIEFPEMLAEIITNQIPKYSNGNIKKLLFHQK
Protocol: Four nuclear receptors: glucocorticoid, androgen, LXRα, and LXRβ were assayed. Inhibition of agonist binding to each of the receptors was carried out following a standard protocol by Eurofins, Inc., USA. Compounds were tested at 10 µM. Compound binding was measured by scintillation counting and was calculated as a % inhibition of the binding of a radioactively labeled ligand specific for each target. Percent inhibition of control specific binding was expressed as
100−[(measured specific binding)/(control specific binding)∗100]
where measured specific binding is the amount of radioactive ligand binding obtained in the presence of test compounds.
(iii) LXRα (human) recombinant protein expressed in E. coli; agonist radioligand 20 nM [^3H] […] (iv) LXRβ (human) recombinant protein expressed in E. coli; agonist radioligand 20 nM [^3H]

CYP3A4 = molecular target: T2, CYP3A4 (Homo sapiens, UniProt P08684); assay: inhibition of CYP3A4 enzymatic activity in human liver microsomes; type: in vitro ADME
T2 construct: Human liver microsomes (150 donors pooled, male & female, Corning, Cat# 452117) were used as a source of CYP3A4; tissue Corning 452117; host or cells: pooled human liver microsomes (150 donors)
T2 sequence (P08684 whole entry): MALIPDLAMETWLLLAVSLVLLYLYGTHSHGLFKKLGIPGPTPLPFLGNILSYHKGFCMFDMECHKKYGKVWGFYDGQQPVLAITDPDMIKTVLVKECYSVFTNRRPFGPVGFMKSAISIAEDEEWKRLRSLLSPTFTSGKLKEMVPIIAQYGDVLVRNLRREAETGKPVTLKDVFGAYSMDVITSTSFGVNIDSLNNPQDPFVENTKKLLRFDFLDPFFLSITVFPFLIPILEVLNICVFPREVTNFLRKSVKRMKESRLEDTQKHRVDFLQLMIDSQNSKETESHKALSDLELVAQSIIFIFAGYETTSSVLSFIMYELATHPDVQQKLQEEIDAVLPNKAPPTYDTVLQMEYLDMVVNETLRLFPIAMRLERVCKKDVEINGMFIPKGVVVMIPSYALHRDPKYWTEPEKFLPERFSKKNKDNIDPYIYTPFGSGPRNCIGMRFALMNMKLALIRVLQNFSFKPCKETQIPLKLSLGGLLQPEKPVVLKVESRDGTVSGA
Protocol: Inhibition of CYP3A4 enzymatic activity was carried out following a standard protocol by Pharmaron, Inc. Human liver microsomes (150 donors pooled, male & female, Corning, Cat# 452117) were used as a source of CYP3A4. The final concentration of human liver microsomes was 0.2 mg/mL. CYP3A4 was tested with testosterone (stock: 10 mM, final: 50 µM) or midazolam (stock: 1 mM, final: 5 µM) as substrate. Aliquots (1 µL) of test compounds (20 µM final concentration), positive control compound ketoconazole (20 µM final concentration), or buffer blank were transferred to a multi-well plate. The reaction was initiated with the addition of 20 µL of 10 mM NADPH solution to provide a final concentration of 1 mM in a 200 µL total volume and carried out at 37°C. The reaction was stopped by the addition of 1.5 volumes of methanol with incubation solution (100 nM alprazolam, 200 nM imipramine, 200 nM labetalol, and 2 µM ketoprofen) at designated time points (5 min midazolam-mediated CYP3A4; 10 min testosterone-mediated CYP3A4). The plate was centrifuged at 3,220 × g for 40 min to precipitate protein. Aliquots of 100 µL of the supernatant were diluted with 100 µL ultra-pure H2O, and the mixture was used for LC-MS/MS analysis to determine concentration of product (hydroxymidazolam or hydroxytestosterone) formed. The % inhibition was calculated by comparison with no inhibitor control. All experiments were performed in duplicate.

M. leprae = test system: M. leprae; design: method as in PMID 34395315; conditions: cited from earlier work
M. leprae 3β-HSD = test system: M. leprae 3β-HSD; design: method as in PMID 34395315; conditions: cited from earlier work

Structure (SMILES)	concentration at 6 h (in vivo)	% inhibition observed, Glucocorticoid Receptor (Glucocorticoid Receptor; 10 µM)	inhibition at 10 µM (Glucocorticoid Receptor; read-out: % inhibition observed, Glucocorticoid Receptor)	% inhibition observed, Cyp3A4 Midazolam Isoform (CYP3A4; 20 µM, midazolam substrate)	% inhibition observed, Cyp3A4 Testosterone Isoform (CYP3A4; 20 µM, testosterone substrate)	inhibition at 5 min, 20 µM (CYP3A4; both sexes, probe midazolam (5 µM), midazolam substrate, read-out: % inhibition observed, Cyp3A4 Midazolam Isoform)	inhibition at 10 min, 20 µM (CYP3A4; both sexes, probe testosterone (50 µM), testosterone substrate, read-out: % inhibition observed, Cyp3A4 Testosterone Isoform)	intracellular viability of M. leprae in vitro (M. leprae)	M. leprae 3β-HSD activity (cholestenone production in axenic medium) (M. leprae 3β-HSD)
C[C@]12CCC3C(CNC4=CC(=O)CC[C@@]43C)C1CCC2C(=O)NC(c1ccc(F)cc1)c1ccc(F)cc1 (stereo partly drawn) [Compound 5]	292 ± 59 µM	moderate	46.4%	strongly inhibits	strongly inhibits	79%	68%		
CC(C)(C)c1ccc(C(C)(C)C)c(NC(=O)C2CCC3C4CNC5=CC(=O)CC[C@]5(C)C4CC[C@]23C)c1 (stereo partly drawn) [Compound 1]								reduce the intracellular viability of M. leprae in vitro	inhibits M. leprae 3β-HSD activity
